According to patent US20140329904A1, “INCREASING THE BIOAVAILABILITY OF HYDROXYCINNAMIC ACIDS” (NESTEC S.A., priority 2011, published 2014):
Read-outs that look alike come from different tables or passages of the source.

Legend:
[1] = tested on: sulfotransferases (SULTs) in human liver S9; experiment: Inhibition of hydroxycinnamic acid sulfation by flavonoids and quercetin conjugates in human liver S9; type: biochemical
Protocol: (§1) The incubation mixture, in a final volume of 50 μL, consisted of 100 mM potassium phosphate buffer (pH 7.4), with 100 μM vitamin C, 100 μM PAPS and 1 mM DTT. Human liver S9 and intestinal S9 homogenates were used at 1 mg/mL and 0.4 mg/mL, respectively. The flavonoids were added from a 5 mM stock solution dissolved in DMSO, with final DMSO concentration equalized to 0.2%. Quercetin-3-glucuronide, quercetin-7-glucuronide and quercetin-3′-sulfate were dissolved in water. After a 15 min pre-incubation period, the reaction was initiated by adding 10 μM cinnamic acids and 25 μM dihydrocinnamic acids from a 50 mM stock solution in DMSO. To inhibit hydrolysis of quercetin glucuronides, in some analyses, 5 mM saccharolactone was added. After 30 min incubation in a 37° C. water bath, the reaction was stopped by addition of 10 μL ice-cold acetonitrile containing 500 mM HCl. Controls were treated under identical condition and consisted of samples with 0.2% DMSO (final concentration) added to the buffer. Samples were stored at −70° C. until analysis.
(§2) HPLC analyses were carried out using the Agilent 1200 series liquid chromatography system. For the analysis of caffeic acid, ferulic acid, isoferulic acid, dihydroferulic acid and their conjugates, chromatography was performed with a Zorbax XDB-C18 column (4.6×150 mm, 5 μm). The mobile phase consisted of 20 mM ammonium formate, pH 2.8 (A) and methanol (B). For the analysis of caffeic acid and conjugates, samples were eluted at 1 mL/min with 5% to 25% B in 20 min, followed by 80% B in 2 min and back to 5% B for 3 min. For the analysis of ferulic and isoferulic acid and their conjugates, the gradient was from 10% to 20% B in 10 min, to 60% B in 15 min, then set at 80% B for 2 min and back to 10% B for 3 min, at 1 mL/min. Dihydroferulic acid and conjugates analysis was carried out at 1 mL/min, from 10% to 20% B in 15 min, to 60% B in 10 min, up to 80% B for 2 min and finally to 10% B for 3 min. For dihydrocaffeic acid and conjugates, the analyses were performed with a Zorbax XDB-C18 column (4.6×50 mm, 1.8 μm) with 20 mM ammonium formate, pH 4.5 (A) and methanol (B) as the mobile phase. The gradient started at 3% (B) kept for 15 min, followed by an increase to 40% B in 5 min, and then returned to 3% B for 5 min. Samples were centrifuged and 25 μL of the supernatant were injected into the column. UV-detection carried out at 280 nm and 310 nm using photodiode array detector. Caffeic, ferulic and isoferulic acid were quantified at 310 nm, dihydroferulic acid and dihydrocaffeic acid at 280 nm.

[2] = tested on: sulfotransferases (SULTs) in human intestinal S9; experiment: Inhibition of hydroxycinnamic acid sulfation by flavonoids in human intestinal S9; type: biochemical; settings: human intestinal S9 0.4 mg/mL, 30 min, 37° C.
Protocol: as §1, §2

[3] = tested on: HepG2 cells; experiment: Inhibition of caffeic acid and ferulic acid sulfation in HepG2 cells; type: cell-based, human; settings: caffeic and ferulic acids 10 μM, 4 h
Protocol: HepG2 cells (ATCC) were routinely cultured in 75 cm^2 cell culture flasks at 37° C. under a humidified 5% CO2/O2 atmosphere. The culture media consisted of Eagle's Minimum Essential Medium (EMEM) media supplemented with 10% fetal bovine serum (Sigma-Aldrich) and 100 U/ml penicillin-streptomycin. All experiments were performed with HepG2 cells between passages 80 to 95. For metabolic studies, HepG2 cells were seeded into 12-well plates at a cell density of 2×10^5 per well. The cell monolayers were allowed to grow over 96 h before they were used for experiments. Hydroxycinnamic acid metabolism experiments were carried out in serum-free media with 100 μM vitamin C and 1.8 mM CaCl2, adjusted to pH 6.5. Cinnamic acids (10 μM) and dihydrocinnamic acids (25 μM) were added from a 50 mM stock solution in DMSO. […] 0.4 mL of hydroxycinnamic acids, with or without the inhibitors, were added to the HepG2 cells and incubated for 4 h at 37° C. The incubation media were then collected, acidified with 1 mM vitamin C and dried under vacuum. The residue was extracted by sonication for 5 min and vortex for 1 min, first with 500 μL acetonitrile, followed by 500 μL methanol. […]
HPLC analyses were carried out using the Agilent 1200 series liquid chromatography system. […] Caffeic, ferulic and isoferulic acid were quantified at 310 nm, dihydroferulic acid and dihydrocaffeic acid at 280 nm.

[4] = human liver S9 1 mg/mL, 10 μM caffeic acid, 30 min, 37° C., flavonoids, read-out: IC50 for the inhibition of sulfation of Caffeic acid
[5] = human liver S9 1 mg/mL, 10 μM ferulic acid, 30 min, 37° C., flavonoids, read-out: IC50 for the inhibition of sulfation of Ferulic acid
[6] = 10 μM caffeic acid, read-out: IC50 for the inhibition of sulfation of Caffeic acid
[7] = 10 μM ferulic acid, read-out: IC50 for the inhibition of sulfation of Ferulic acid
[8] = liver S9, 10 μM caffeic acid, quercetin conjugates dissolved in water, read-out: IC50 for the inhibition of sulfation of Caffeic acid
[9] = liver S9, 10 μM ferulic acid, quercetin conjugates dissolved in water, read-out: IC50 for the inhibition of sulfation of Ferulic acid

SMILES	IC50 [1, 4] [µM]	IC50 [1, 5] [µM]	IC50 [2, 6] [µM]	IC50 [2, 7] [µM]	Inhibitory effect on hydroxycinnamic acids sulfation [3]	IC50 [1, 8] [µM]	IC50 [1, 9] [µM]	Inhibition of sulfation of hydroxycinnamic acid, ranking in words ([1]; liver S9)
Oc1cc(O)c2c(c1)O[C@H](c1ccc(O)c(O)c1)[C@@H](O)C2 [(+)-Catechin]	4.2	4.4	5.8	7				
Oc1cc(O)c2c(c1)O[C@H](c1ccc(O)c(O)c1)[C@H](O)C2 [(−)-Epicatechin]	7.4	7.3	7.6	11				
O=c1cc(-c2ccc(O)cc2)oc2cc(O)cc(O)c12 [Apigenin]	0.46	0.88	0.96	2.3				
O=c1c(-c2ccc(O)cc2)coc2cc(O)ccc12 [Daidzein]	0.65	0.62	0.72	2.3				
O=c1c(-c2ccc(O)cc2)coc2cc(O)cc(O)c12 [Genistein]	0.59	1	0.77	1.5				
COc1ccc([C@@H]2CC(=O)c3c(O)cc(O)cc3O2)cc1O [Hesperetin]	4.3	5.3	3.5	5.1				
COc1cc(-c2oc3cc(O)cc(O)c3c(=O)c2O)ccc1O [Isorhamnetin]	2	3.7	4.4	4.7				
O=c1c(O)c(-c2ccc(O)cc2)oc2cc(O)cc(O)c12 [Kaempferol]	0.92	3.9	2.5	3.8				
O=c1cc(-c2ccc(O)c(O)c2)oc2cc(O)cc(O)c12 [Luteolin]	0.08	0.53	1.3	3	inhibitory effect			
O=C(CCc1ccc(O)cc1)c1c(O)cc(O)cc1O [Phloretin]	0.99	1	0.84	2.3				
O=C(O)[C@H]1O[C@@H](Oc2c(-c3ccc(O)c(O)c3)oc3cc(O)cc(O)c3c2=O)[C@H](O)[C@@H](O)[C@@H]1O [Quercetin-3-glucuronide]						11	12	
O=c1c(O)c(-c2ccc(O)c(OS(=O)(=O)O)c2)oc2cc(O)cc(O)c12 [Quercetin-3′-sulfate]						6.6	6.7	
O=C(O)[C@H]1O[C@@H](Oc2cc(O)c3c(=O)c(O)c(-c4ccc(O)c(O)c4)oc3c2)[C@H](O)[C@@H](O)[C@@H]1O [Quercetin-7-glucuronide]						9.6	8	
O=c1c(O)c(-c2ccc(O)c(O)c2)oc2cc(O)cc(O)c12 [Quercetin]	0.41	0.64	4.2	5.2	inhibitory effect			most effective inhibitors
